Columns and labels:
[1] = tested on: liver microsomal cytochrome P450; experiment: Optical difference spectrum with liver microsomal cytochrome P450; format: binding; settings: oxidised microsomes from phenobarbital-induced rat liver
Excerpt: The cytochrome P450 system is a system by means of which toxins are metabolised in the liver. A wide variety of substances combine with oxidised liver microsomal cytochrome P450 bringing about a change in absorbency. It has been shown that various drugs, substrates and inhibitors react with microsomal cytochrome P450 to give three characteristic types of spectral change.
The three types of spectral changes are as follows.
i) For substances such as ethylmorphine or hexobarbital, the minimum difference in the spectrum occurs at about 420 nm and the maximum at about 385-390 nm. These substances are designated type I compounds).
ii) For compounds such as aniline or nicotinamide, the minimum difference in the spectrum occurs at about 390-410 nm and the maximum at about 430 nm. These substances are designated type II compounds.
iii) Some compounds are apparently type II substrates but actually act by displacing endogenous type I substrates when added to microsomes. These compounds are designated reverse type I substrates.
It has been shown that, for a number of substrates, the apparent binding constants calculated from spectral changes are related to the actual binding of type I substrates at the active site.
Ks (spectral association constant) was 0.1 mM. This is Ks for the well known cytochrome P450 HEXENAL™.

[2] = tested on: cells of the reticulo-endothelial system; settings: cited from earlier work
[3] = Pyrogenicity
Excerpt: Pyrogenicity is a problem which has caused difficulties for the exploitation of certain muramyl dipeptides. Pyrogenicity may be attenuated by appropriate formulations (see, for example, the liposomal formulations of U.S. Pat. Nos. 4,522,811 and 4,684,625), but in general it will be preferable to choose, for use in the present invention, a muramyl dipeptide which has low intrinsic pyrogenicity. […] Such an analogue is available, and is N-acetyl-glucosaminyl-N-acetyl-muramyl-L-alanyl-D-glutamic acid (GMDP-A), which is Compound III in U.S. Pat. No. 4,395,399, and whose structure is as follows: [drawing 5]

[4] = Placebo-controlled trial in colorectal surgery patients, blood bilirubin; format: in vivo, human; settings: GMDP 1, 2 or 3 mg per day for 10 days
Excerpt: Over 200 patients were enrolled in a placebo-controlled trial to determine the effect of GMDP on the outcome of colorectal surgery. Many of these patients had undergone previous chemotherapy for the treatment of cancers, often over substantial periods of time, with the result that liver damage had occurred.
This was evidenced by such indicators as elevated bilirubin in their blood, resulting from the reduced ability of the liver to function as a detoxification organ. […] GMDP or placebo were administered for 10 days, and bilirubin levels in the blood were measured before and after the course of treatment. Bilirubin data were obtained from 182 of the subjects. It is clear that the average blood level of bilirubin decreased in the GMDP-treated group and the two asterisks indicate that this decrease was statistically highly significant (p=0.002). […] Blood levels of bilirubin before the trial were not different in the two groups.

[5] = tested on: mice liver cytochrome P-450 system; experiment: Indices of activity of mice liver cytochrome P-450 system after GMDP injections; format: in vivo
Method: The experiments were performed on white male mice with a mass of […]. GMDP was dissolved in isotonic solution of sodium chloride and administered by means of intraperitoneal injection once a day for 3 days, with a dose of 20 mg/kg. A corresponding volume of the solvent was administered to control animals. Each group (test and control) consisted of 8 to 10 mice. Twenty-four hours after the last injection of the substances under test (test) and the solvent (control), the animals were killed, the liver was removed and its weight was determined. This was followed by the isolation of the microsomal fraction by means of differential centrifugation. The quality protein in it was determined according to the method of Lowry et al (Lowry et al, J. Biol. Chem., 193, 265-275 (1951)). Bovine serum albumin was used in the construction of calibrating plot. The content of cytochrome P450 and B5 in the liver microsomal fraction was determined by spectrophotometric method with the help of a `Hitachi-556` spectrophotometer. The rate of oxidation of aniline (p-hydroxylation) in microsomes in the presence of NADPH was determined spectrophotometrically on the basis of p-aminophenol which has formed already. The rate of oxidation of benzo(a)pyrene (BP) in liver microsomes was determined according to the intensity of fluorescence of the forming 3-oxibenzo (a) pyrene `Baird Nova` fluorimeter. The rate of hydroxylation of aniline and BP in microsomes was expressed in nmol of metabolites/nmol of cytochrome P450 per 1 minute, or in nmol of metabolites/mg of microsome protein per 1 minute. Statistical processing of the obtained data was performed with the use of Student's t-test.

[6] = tested on: mice; experiment: Acute toxicity, LD50 test in mice; format: in vivo
Excerpt: This compound (Compound II in U.S. Pat. No. 4,395,399), also known as glycopin, has already undergone preclinical toxicity testing and pharmacokinetic investigations required for licensing for clinical use in the USSR. The acute toxicity in mice, measured by the LD50 test is 7 g/kg.

[7] = tested on: mice; experiment: Duration of HEXENAL (hexobarbital) narcosis in mice, oral GMDP; format: in vivo; settings: for Effect % (M ± m): vs control
Method: This example studies the effect of GMDP on the duration of narcosis induced by hexobarbital.
GMDP was administered orally to mice 15 minutes before the intraperitoneal injection of hexobarbital (HEXENAL™) at 50 mg/kg. The duration of narcosis (preservation of the lateral position) was recorded.

[8] = Water solubility; format: physicochemical
Excerpt: GMDP also has the particular advantage, shared with the other glucosaminyl-muramyl peptides of U.S. Pat. No. 4,395,399, of being water soluble: this is a real benefit for parenteral administration. The choice of this muramyl dipeptide which in many ways is contrary to the trend in the art. Both muroctasin and MTP-PE have been specifically synthesised to incorporate a lipophilic group, and many non-lipophile-substituted muramyl dipeptides have been formulated in lipophilic preparations such as liposomes (as in U.S. Pat. No. 4,522,811 and U.S. Pat. No. 4,684,625), purportedly to enhance the activity of the muramyl dipeptide. In the present invention, water solubility is preferred.

[9] = tested on: outbred mice; experiment: Duration of acetaldehyde narcosis in outbred mice; format: in vivo; settings: GMDP IP, three daily injections; acetaldehyde 450 mg/kg IP
Method: (§1) Outbred white mice were given three intraperitoneal injections of GMDP at daily intervals and challenged with ethanol (4.5 g/kg IP) after the last GMDP injection. Narcosis was defined as the time in the lateral position ("leglessness"). […] Each group contained 10 to 12 mice.
The procedure of Example 1 was followed but modified to study the duration of acetaldehyde narcosis. Acetaldehyde, at 450 mg/kg was administered IP after the last GMDP dose, instead of the ethanol.

[10] = tested on: C57BL/6 mice; experiment: Duration of hexenal narcosis in C57BL/6 mice; format: in vivo
Excerpt: Cytochrome P450 -dependent monooxygenase activity induction in accordance with pharmacological testing of HEXENAL™ narcosis duration in mice.
In addition to the experiments, which have shown GMDP ability to interact directly with cytochrome P450 molecule as a substrate (in vitro) and to induce cytochrome P450 system in liver microsomes (GMDP effect in vivo), experiments for testing cytochrome P450 system according to the duration of HEXENAL™ narcosis in mice have been carried out. It is well known that HEXENAL™ is a substrate of cytochrome P450, and the duration of its narcotic effect clearly correlates with the rate of its oxidation in the liver cytochrome P450 system. The method of Example 6 was repeated, but instead of aniline and benzo(a)pyrene, the ability of the microsomes to metabolise HEXENAL™ was tested. The experiments performed have shown that GMDP in small doses is capable of inducing cytochrome P450 -dependent oxidation of HEXENAL™ (Tables 3 and 4).

[11] = tested on: outbred white mice; experiment: Duration of ethanol narcosis in outbred white mice; format: in vivo; settings: GMDP at least 0.01 mg/kg IP, three daily injections; ethanol 4.5 g/kg IP; vs control
Excerpt: as §1
In this example, the influence of GMDPA and various GMDP or GMDPA analogues on ethanol narcosis was studied. The procedure of Example 1 was followed, except that instead of the GMDP, one of the following compounds was administered IP at 1 mg/kg daily for three days: […]

[12] = tested on: inbred C57 B1/6 mice; experiment: Acetaldehyde narcosis in inbred C57 B1/6 mice; format: in vivo; settings: GMDPA IP daily for three days
Method: as §1
This example studies the influence of GMDPA on acetaldehyde narcosis in inbred C57 B1/6 mice. The procedure of Example 1 was generally followed except that GMDPA was injected IP daily for three days and acetaldehyde was given 1, 4, 8 or 12 days later.

[13] = 24 hours after GMDP 20 mg/kg × 3 days i.p.
[14] = GMDP relative to control, 20 mg/kg × 3 days
[15] = liver microsomes, 24 hours after GMDP 20 mg/kg × 3 days i.p.
[16] = GMDP 0.01 mg/kg orally 15 min before hexobarbital 50 mg/kg i.p.
[17] = GMDP 0.1 mg/kg orally 15 min before hexobarbital 50 mg/kg i.p.
[18] = GMDP 1.0 mg/kg orally 15 min before hexobarbital 50 mg/kg i.p.
[19] = GMDP 0.01 mg/kg × 3 days i.p, hexenal 50 mg/kg 24 hours after GMDP injections
[20] = GMDP i.p injection simultaneously with hexenal injection, 50 mg/kg
[21] = GMDP i.p. injection 10 min after hexenal injection, 50 mg/kg
[22] = GMDP i.p. injection 30 min before hexenal injection, 50 mg/kg
[23] = GMDP i.p. injection 60 min before hexenal injection, 50 mg/kg
[24] = GMDP per os 15 min before i.p injection of hexenal 50 mg/kg

## CC(=O)N[C@H]1[C@H](O[C@H]2[C@H](O[C@H](C)C(=O)N[C@@H](C)C(=O)N[C@H](CCC(=O)O)C(N)=O)[C@@H](NC(C)=O)C(O)O[C@@H]2CO)O[C@H](CO)[C@@H](O)[C@@H]1O (stereo partly drawn) [GMDP, N-acetyl-glucosaminyl-N-acetyl-muramyl-L-alanyl-D-isoglutamine]
[1]
  Ks (spectral association constant): 0.1 mM
  type of optical difference spectrum: type I optical difference spectrum
[2]
  synthesis of the superoxide anion (O2^-): stimulates the synthesis of the superoxide anion
[3]
  pyrogenicity: sufficiently low not to have prevented its clinical evaluation
[4]
  blood level of bilirubin after treatment vs placebo: significantly different from bilirubin levels after placebo treatment
[4]; p=0.002
  average blood level of bilirubin, after vs before treatment: decreased
[5]; [13]
  Liver weight mg/g of the animal weight: 80.0 mg/g of the animal weight
  Microsomal protein mg/g of liver weight: 5.8 ± 0.31 mg/g of liver weight
[5]; [14]
  Aniline-hydroxylase (per mg of protein), %: 194%
  Aniline-hydroxylase (per nmol of cyt. P-450), %: 178%
  BP-hydroxylase (per mg of protein), %: 171%
  BP-hydroxylase (per nmol of cyt P-450), %: 218%
  Cytochrome P-450, %: 134%
  Microsomal protein, %: 129%
[5]; liver microsomal fraction, 24 hours after GMDP 20 mg/kg × 3 days i.p.
  Cytochrome P-450 nmol/mg of protein: 0.87 ± 0.06 nmol/mg of protein
[5]; [15]
  Aniline-hydroxylase nmol/mg of protein per 1 minute: 1.20 ± 0.1 nmol/mg of protein per 1 minut
  Aniline-hydroxylase nmol/nmol of cyt. P-450 per 1 minute: 1.05 ± 0.01 nmol/nmol of cyt. P-450 per 1
  BP-hydroxylase nmol/mg of protein per 1 minute: 0.6 ± 0.04 nmol/mg of protein per 1 minut
  BP-hydroxylase nmol/nmol of cyt P-450 per 1 minute: 0.87 ± 0.09 nmol/nmol of cyt P-450 per 1 m
[6]
  acute toxicity in mice, LD50: 7000 mg/kg
[7]; [16]
  Narcosis duration Min (M ± m): 15.48 ± 4.93 min
  Effect % (M ± m): -74.01 ± 8.15%
[7]; [17]
  Narcosis duration Min (M ± m): 8.72 ± 2.98 min
  Effect % (M ± m): -85.59 ± 4.92%
[7]; [18]
  Narcosis duration Min (M ± m): 18.47 ± 4.82 min
  Effect % (M ± m): -69.47 ± 7.96%
[7]; average over all the doses investigated
  shortening of the duration of hexobarbital-induced narcosis: ~4 fold
[8]
  water solubility: water soluble
[9]
  duration of acetaldehyde narcosis: markedly shortened the duration of narcosis
[10]; [19]
  Narcosis duration min. (M ± m): 21.7 ± 5.2 min
  Narcotic effect in % from control: 45%
[10]; [20]
  Narcosis duration min. (M ± m): 25.7 ± 4.9 min
  Narcotic effect in % from control: 85%
[10]; [21]
  Narcosis duration min. (M ± m): 41.2 ± 3.3 min
  Narcotic effect in % from control: 95%
[10]; [22]
  Narcosis duration min. (M ± m): 18.4 ± 1.5 min
  Narcotic effect in % from control: 61%
[10]; [23]
  Narcosis duration min. (M ± m): 30.9 ± 5.7 min
  Narcotic effect in % from control: 100%
[10]; [24]
  Narcosis duration min. (M ± m): 31.3 ± 4.9 min
  Narcotic effect in % from control: 57%
[11]
  duration of ethanol narcosis: much shorter duration

## N-acetyl-glucosaminyl-N-acetyl-muramyl-L-alanyl-D-glutamic acid [GMDPA]
[3]
  pyrogenicity: substantially non-pyrogenic
[12]; acetaldehyde given 1, 4 or 8 days later
  inhibition of acetaldehyde narcosis: inhibition of narcosis occurred
[12]; acetaldehyde given 12 days later
  inhibition of acetaldehyde narcosis: not 12

Source: patent US5534492A, “Muramyl peptide for the treatment of toxicity” (Peptech (UK) Limited, priority 1992, dated 1996)
